Source: patent publication US6583265B1, “Cyclosporins” (C-Chem AG, priority 1998, dated 2003)
Converted amounts (≈) assume the structure as drawn. Like-named read-outs stand apart in the source and are kept apart here. Peptide text beside a SMILES is read from it.

Columns and labels:
[1] = test system: T. gondii tachyzoites, strain RH; type: cell-based, Toxoplasma gondii; conditions: 72 h
Description: Using microliter plates, T. gondii tachyzoites, strain RH were co-incubated with fibroblasts (MCR5, Bio-Merieux) for 72 hrs in the presence and absence of test compounds T. gondii was quantified using an ELISA. The activities of the test compounds are as follows: […]

[2] = Antiinflammatory activity, adjuvent arthritis test (Pearson); type: in vivo; conditions: oral, solutions in olive oil and tween 80
Description: The antiinflammatory activity of test compounds was determined by the adjuvent arthritis test described by Pearson, “Arthr. Rheum”, 1959, Vol. 2., 440. Test compounds were administered orally as solutions in olive oil and tween 80.

[3] = biological target: recombinant human cyclophilin 18 (Homo sapiens, UniProt P62937); test: Test for inhibition of cyclophilin (chymotrypsin-coupled hydrolysis of Succ-Ala-Phe-Pro-Phe-4-nitroanilide); type: biochemical; conditions: recombinant human cyclophilin 18, 10 °C, HEPES buffer, 5 minutes preincubation, substrate 50 μM
Description: The test described by G. Fischer et al., Biomed. Biochim. Acta, Vol. 43, 1101-1111 (1984) was used. Specifically, 5 μL of a 1 μM solution of recombinant human cyclophilin 18 was dissolved, at 10,0±0.3° C. in 1250 μL HEPES buffer; α-chymotrypsin was added to give a final concentration of 30 μM. […] After 5 minutes preincubation, Succ-Ala-Phe-Pro-Phe-4-nitroanilide (SEQ ID No. 1) was added to give a final concentration of 50 μM. The hydrolysis of the substrate was measured spectrophotometrically at […].

HIV = type: cell-based
Excerpt: The inhibitory effect of test compounds on the HIV-induced cytopathic effect on the MT4 T cell line as described by R. Pauwels in J. Virol. Methods, 1988, Vol. 20, pp 309-321 was used.

cyclophilin = cyclophilin (Homo sapiens, UniProt P62937); test: Test for cyclophilin binding (Fliri); conditions: ratio to cyclosporin A
Excerpt: To measure the affinity and inhibition of test compounds for cyclophilin, the test described by H. Fliri in “Antibiotics and Antiviral compounds”, 1993, Verlag Chemie, K.Krohn, H. A. Kirst, and H. Maag, eds., p 229-240 was used.

recombinant human cyclophilin 18, sequence (P62937 whole entry): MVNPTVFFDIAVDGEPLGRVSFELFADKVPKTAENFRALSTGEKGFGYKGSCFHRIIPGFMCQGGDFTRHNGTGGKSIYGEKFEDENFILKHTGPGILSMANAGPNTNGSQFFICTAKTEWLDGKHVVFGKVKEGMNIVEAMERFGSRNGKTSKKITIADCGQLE
cyclophilin, sequence (P62937 whole entry): as above

## C/C=C/C[C@@H](C)[C@@H](O)[C@H]1C(=O)N[C@@H](CC)C(=O)N(C)C(OC)C(=O)N(C)[C@@H](CC(C)C)C(=O)N[C@@H](C(C)C)C(=O)N(C)[C@@H](CC(C)C)C(=O)N[C@@H](C)C(=O)N[C@H](C)C(=O)N(C)[C@@H](CC(C)C)C(=O)N(C)[C@@H](CC(C)C)C(=O)N(C)[C@@H](C(C)C)C(=O)N1C (some centres unmarked) [Example 14, 3-Methoxycyclosporin]
[1]
  Activity against T. gondii (IC50): 0.6 µg/mL
[2]
  ED50, dose effective in reducing the joint swelling by 50%: 10 mg/kg

## C/C=C/C[C@@H](C)[C@@H](O)[C@H]1C(=O)N[C@@H](CC)C(=O)N(C)[C@H](OC(C)(C)C)C(=O)N(C)[C@@H](CC(C)C)C(=O)N[C@@H](C(C)C)C(=O)N(C)[C@@H](CC(C)C)C(=O)N[C@@H](C)C(=O)N[C@H](C)C(=O)N(C)[C@@H](CC(C)C)C(=O)N(C)[C@@H](CC(C)C)C(=O)N(C)[C@@H](C(C)C)C(=O)N1C [Example 17, [D-Sar-(tert.-butoxy)^3]-cyclosporin] (HELM PEPTIDE1{[C/C=C/C[C@@H](C)[C@@H](O)[C@@H](C(=O)[*:2])N(C)[*:1]].[Abu].[CN([C@H](OC(C)(C)C)C(=O)[*:2])[*:1]].[meL].V.[meL].A.[dA].[meL].[meL].[meV]}$PEPTIDE1,PEPTIDE1,1:R1-11:R2$$$V2.0)
[3]
  IC50: 18.9 ± 1.03 nM

## C/C=C/C[C@@H](C)[C@@H](O)[C@H]1C(=O)N[C@@H](CC)C(=O)N(C)C(SCCN(C)C)C(=O)N(C)[C@@H](CC(C)C)C(=O)N[C@@H](C(C)C)C(=O)N(C)[C@@H](CC(C)C)C(=O)N[C@@H](C)C(=O)N[C@H](C)C(=O)N(C)[C@@H](CC(C)C)C(=O)N(C)[C@@H](CC(C)C)C(=O)N(C)[C@@H](C(C)C)C(=O)N1C (some centres unmarked) [Example 9, 3-(2-dimethylaminoethylthio)-cyclosporin]
HIV; HIV-induced cytopathic effect on MT4 T cell line
  IC50: 0.03 µg/mL (≈ 0.023 µM)
[1]
  Activity against T. gondii (IC50): 0.1 µg/mL

## C=CCO[C@@H]1C(=O)N(C)[C@@H](CC(C)C)C(=O)N[C@@H](C(C)C)C(=O)N(C)[C@@H](CC(C)C)C(=O)N[C@@H](C)C(=O)N[C@H](C)C(=O)N(C)[C@@H](CC(C)C)C(=O)N(C)[C@@H](CC(C)C)C(=O)N(C)[C@@H](C(C)C)C(=O)N(C)[C@@H]([C@H](O)[C@H](C)C/C=C/C)C(=O)N[C@@H](CC)C(=O)N1C [Example 18, [D-Sar-(allyloxy)^3]-cyclosporin] (HELM PEPTIDE1{[C/C=C/C[C@@H](C)[C@@H](O)[C@@H](C(=O)[*:2])N(C)[*:1]].[Abu].[C=CCO[C@H](C(=O)[*:2])N(C)[*:1]].[meL].V.[meL].A.[dA].[meL].[meL].[meV]}$PEPTIDE1,PEPTIDE1,1:R1-11:R2$$$V2.0)
[3]
  IC50: 10.2 ± 2.21 nM

## C/C=C/C[C@@H](C)[C@@H](O)[C@H]1C(=O)N[C@@H](CC)C(=O)N(C)C(OC(C)=O)C(=O)N(C)[C@@H](CC(C)C)C(=O)N[C@@H](C(C)C)C(=O)N(C)[C@@H](CC(C)C)C(=O)N[C@@H](C)C(=O)N[C@H](C)C(=O)N(C)[C@@H](CC(C)C)C(=O)N(C)[C@@H](CC(C)C)C(=O)N(C)[C@@H](C(C)C)C(=O)N1C (some centres unmarked) [Example 13, 3-Acetoxy-cyclosporin]
HIV
  IC50: 0.15 µg/mL (≈ 0.119 µM)
[1]
  Activity against T. gondii (IC50): 1 µg/mL

## C/C=C/C[C@@H](C)[C@@H](O)[C@H]1C(=O)N[C@@H](CC)C(=O)N(C)C(OCC)C(=O)N(C)[C@@H](CC(C)C)C(=O)N[C@@H](C(C)C)C(=O)N(C)[C@@H](CC(C)C)C(=O)N[C@@H](C)C(=O)N[C@H](C)C(=O)N(C)[C@@H](CC(C)C)C(=O)N(C)[C@@H](CC(C)C)C(=O)N(C)[C@@H](C(C)C)C(=O)N1C (some centres unmarked) [Example 15, 3-Ethoxycyclosporin] (HELM PEPTIDE1{[C/C=C/C[C@@H](C)[C@@H](O)[C@@H](C(=O)[*:2])N(C)[*:1]].[Abu].[CCOC(C(=O)[*:2])N(C)[*:1]].[meL].V.[meL].A.[dA].[meL].[meL].[meV]}$PEPTIDE1,PEPTIDE1,1:R1-11:R2$$$V2.0)
[1]
  Activity against T. gondii (IC50): 0.6 µg/mL
cyclophilin
  Relative IC50, i.e. IC50 (cyclosporin A)/IC50 (test compound): 2
[2]
  ED50, dose effective in reducing the joint swelling by 50%: 15 mg/kg
